This note sets out measurements from US20050288307A1, “Anti-viral compounds” (priority 2002, published 2005).

The target in series [1] is CDK7/cyclin H (Homo sapiens, UniProt P50613). The experiment in a line: CDK7 assay (CTD peptide substrate). In kind it is biochemical. The conditions noted are these: read-out: Average IC50 CDK7 cyclin H. An outline of the steps: (§1)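 Recombinant human CDK7/cyclin H or CDK9/cyclin T1 with biotinylated CTD peptide, 45 min at 30 °C, pH 7.2 MOPS buffer, 15 mM MgCl2, 100 μM ATP with trace [γ-32P]ATP. Avidin capture on P81 filters, phosphoric acid washes, 32P incorporation by scintillation counting.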

Series [2] deals with Akt/PKB (Homo sapiens, UniProt P31749). The experiment in a line: Kinase specificity panel: Akt/PKB. In kind it is biochemical. The settings on record: Table 2.
The test system of series [3] is CaMKII. In kind it is biochemical. The conditions noted are these: Table 2.
Series [4] deals with ERK2 (Homo sapiens, UniProt P28482). Kind of series: Kinase specificity panel: ERK2. In kind it is biochemical. The conditions noted are these: Table 2.
For series [5], the target named is T1, PKC (Homo sapiens, UniProt P17252).
T1 construct: 6xHis (C); made in house; host or cells: Sf9 insect cells (baculovirus)
Kind of series: PKC kinase assay (Histone 3 phosphorylation). The conditions noted are these: Table 2. In kind it is biochemical. The method, then:
PKCα kinase activity may be measured by the incorporation of radio-labeled phosphate in Histone 3, as described. The reaction mixture (total volume 65 μl) consist of 50 mM Tris-HCl, 1 mM Calcium acetate, 3 mM DTT, 0.03 mg/ml Phosphatidylserine, 2.4 μg/ml PMA, 0.04% NP40, 12 mM Mg/Cl, purified PKCα-100 ng, Histone 3, 0.2 mg/ml, 100 μM ATP, 0.2 μCi [γ-^32P]-ATP. The reaction is carried over 15 min at 37° C. in microplate shaker and is stopped by adding 10 μl 75 mM orthophosphoric acid and placing the plate on ice. 50 μl of the reaction mixture is transferred onto P81 filterplate and after washing off the free radioactive phosphate (3 times with 200 μl 75 mM orthophosphoric acid per well) 50 μl of scintillation liquid (Microscint 40) were added to each well and the radioactivity is measured on Scintillation counter (Topcount, HP).

Series [6] has as its target SAPK2a (Homo sapiens, UniProt Q16539). Kind of series: Kinase specificity panel: SAPK2a. In kind it is biochemical. The conditions noted are these: Table 2.
Series [7] concerns the target CDK1/Cyclin B (Homo sapiens, UniProt P06493). The experiment in a line: CDK1/cyclin B kinase assay (GST-Rb phosphorylation).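 Note: Enzyme: His-tagged CDK1/Cyclin B co-expressed in baculovirus-infected Sf9 insect cells, purified via metal-chelate chromatography.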
Description: His-tagged CDK2/Cyclin E and CDK1/Cyclin B may be co-expressed and PKCα singularly expressed in Sf 9 insect cells infected with the appropriate baculovirus constructs. The cells are harvested two days after infection by low speed centrifugation and the proteins purified from the insect cell pellets by Metal-chelate chromatography. Briefly, the insect cell pellet is lysed in Buffer A (10 mM Tris-HCl, pH 8.0, 150 mM NaCl, 0.02% NP40 and 5 mM β-marcaptoethanol, 1 mM NaF. 1 mM Na3VO4 and Protease Inhibitors Coctail (Sigma) containing AEBSF, pepstatin A, E 64, bestatin, leupeptin) by sonication. The soluble fraction is cleared by centrifugation and loaded onto Ni-NTA-Agarose (Quiagen). Non bound proteins were washed off with 300 mM NaCl, 5-15 mM Imidazole in Buffer A and the bound proteins eluted with 250 mM Imidazole in Buffer A. The purified proteins are extensively dialyzed against Storage buffer (20 mM HEPES pH 7.4, 50 mM NaCl, 2 mM DTT, 1 mM EDTA, 1 mM EGTA, 0.02% NP40, 10% v/v Glycerol) aliquoted and stored at −70° C.
Series [8] deals with T2, CDK2/Cyclin E (Homo sapiens, UniProt P24941).
T2 construct: His; made in house; host or cells: Sf9 insect cells (baculovirus)
Kind of series: CDK2/cyclin E kinase assay (GST-Rb phosphorylation).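 Note: enzyme source: His-tagged CDK2/cyclin E complex co-expressed recombinantly in Sf9 insect cells using baculovirus constructs.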 In kind it is biochemical. The settings on record: read-out: Average IC50 CDK2 cyclin E1.

The target in series [9] is CDK4/Cyclin D1 (Homo sapiens, UniProt P11802). The experiment in a line: CDK4/cyclin D1 kinase assay (GST-Rb phosphorylation). In kind it is biochemical. The conditions noted are these: read-out: Average IC50 CDK4 cyclin D1.
The test system of series [10] is HIV-1RoJo/PBMC. The experiment in a line: Anti-HIV efficacy in fresh human PBMCs, strain RoJo. In kind it is cell-based. The protocol:
(§2) Fresh PBMCs, seronegative for HIV and HBV, were isolated from screened donors (Interstate Blood Bank, Inc. Memphis, Tenn.). Cells were pelleted/washed 2-3 times by low speed centrifugation and re-suspension in PBS to remove contaminating platelets. […] Banded PBMCs were gently aspirated from the resulting interface and subsequently washed with PBS by low speed centrifugation. […] The cells were allowed to incubate at 37° C. […] IL-2 is included in the culture medium to maintain the cell division initiated by the PHA mitogenic stimulation. PBMCs were maintained in this with bi-weekly medium changes until used in the assay protocol. Cells were kept in culture for a maximum of two weeks before being deemed too old for use in assays and discarded. Monocytes were depleted from the culture as the result of adherence to the tissue culture flask.
(§3) Tritiated thymidine triphosphate (^3H-TTP, 80 Ci/mmol, NEN) was received in 1:1 dH2O:Ethanol at 1 mCi/mL. Poly rA:oligo dT template:primer (Pharmacia) was prepared as a stock solution, followed by aliquoting and storage at −20° C. The RT reaction buffer was prepared fresh on a daily basis. The final reaction mixture was prepared by combining ^3H-TTP, dH2O, poly rA:oligo dT stock and reaction buffer. This reaction mixture was placed in a round bottom microtiter plate and supernatant containing virus was added and mixed. The plate was incubated at 37° C. for 60 minutes. Following incubation, the reaction volume was spotted onto DE81 filter-mats (Wallac), in a sodium phosphate buffer or 2×SSC (Life Technologies). Next they were washed in distilled water, in 70% ethanol, and then dried. Incorporated radioactivity (counts per minute, CPM) was quantified using standard liquid scintillation techniques.

Series [11] relates to HIV-1WeJo/PBMC. Kind of series: Anti-HIV efficacy in fresh human PBMCs, strain WeJo. In kind it is cell-based. The method, then:
as §2, §3

Series [12] deals with HIV-1. Kind of series: Anti-viral cell-based assays. The settings on record: result in words.
Series [13] is described as follows: Compound cytotoxicity in PBMC assay plates (MTS cell viability). The settings on record: human, TC50 (concentration decreasing cell viability by 50%).
Series [14] deals with CDK2/cyclin A (Homo sapiens, UniProt P24941). Kind of series: CDK2/cyclin A kinase assay.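 Note: Read-out is incorporated radioactivity retained on P81 filter plates and quantified by scintillation counting.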 The settings on record: Table 3; read-out: Average IC50 CDK2 cyclin A2. In kind it is biochemical.
Description: Reactions were stopped on ice, followed by filtration through p81 filterplates (Whatman Polyfiltronics, Kent, UK). After washing 3 times with 75 mM orthophosphoric acid, plates were dried, scintillant added and incorporated radioactivity measured in a scintillation counter (TopCount, Packard Instruments, Pangboume, Berks, UK).
Series [15] addresses CDK9/cyclin T1 (Homo sapiens, UniProt P50750). Kind of series: CDK9 assay (CTD peptide substrate). In kind it is biochemical. The settings on record: read-out: Average IC50 CDK9 cyclin T1. The essentials: as §1
Setting [16] is: Human immunodeficiency virus 1, read-out: IC50 (concentration inhibiting virus replication by 50%), HIV-1RoJo/PBMC.
Where [17] appears, read: Human immunodeficiency virus 1, read-out: IC90 (concentration inhibiting virus replication by 90%), HIV-1RoJo/PBMC.
[18] abbreviates: Human immunodeficiency virus 1, read-out: IC50 (concentration inhibiting virus replication by 50%), HIV-1WeJo/PBMC.
Setting [19] is: Human immunodeficiency virus 1, read-out: IC90 (concentration inhibiting virus replication by 90%), HIV-1WeJo/PBMC.
Setting [20] is: Human immunodeficiency virus 1, PBMC, read-out: IC50 (concentration inhibiting virus replication by 50%).
[21] abbreviates: Human immunodeficiency virus 1, PBMC, read-out: IC90 (concentration inhibiting virus replication by 90%).

Read-outs that look alike come from different tables or passages of the source. A value given as a limit tells only on which side of the number the result lay.

Sequence of ERK2 (P28482 whole entry, species assumed): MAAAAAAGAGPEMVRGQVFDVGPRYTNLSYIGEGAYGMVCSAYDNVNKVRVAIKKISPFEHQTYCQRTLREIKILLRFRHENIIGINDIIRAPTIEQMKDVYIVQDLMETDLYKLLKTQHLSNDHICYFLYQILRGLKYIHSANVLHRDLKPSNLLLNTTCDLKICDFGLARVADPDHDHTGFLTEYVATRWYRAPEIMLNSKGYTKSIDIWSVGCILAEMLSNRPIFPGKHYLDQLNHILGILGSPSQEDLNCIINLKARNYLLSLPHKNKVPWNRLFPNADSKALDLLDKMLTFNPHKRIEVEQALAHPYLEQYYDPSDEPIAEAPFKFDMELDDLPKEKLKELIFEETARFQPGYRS
Sequence of CDK1/Cyclin B (P06493 whole entry, species assumed): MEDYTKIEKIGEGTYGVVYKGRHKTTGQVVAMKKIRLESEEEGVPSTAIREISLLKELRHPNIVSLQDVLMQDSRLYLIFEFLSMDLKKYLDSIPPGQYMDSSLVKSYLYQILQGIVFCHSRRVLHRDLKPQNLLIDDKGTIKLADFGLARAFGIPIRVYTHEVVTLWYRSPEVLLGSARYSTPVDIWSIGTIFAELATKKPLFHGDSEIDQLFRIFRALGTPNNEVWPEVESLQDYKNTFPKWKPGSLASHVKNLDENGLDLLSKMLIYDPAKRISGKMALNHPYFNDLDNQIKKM
Sequence of CDK1/Cyclin B (P14635 whole entry partner, species assumed): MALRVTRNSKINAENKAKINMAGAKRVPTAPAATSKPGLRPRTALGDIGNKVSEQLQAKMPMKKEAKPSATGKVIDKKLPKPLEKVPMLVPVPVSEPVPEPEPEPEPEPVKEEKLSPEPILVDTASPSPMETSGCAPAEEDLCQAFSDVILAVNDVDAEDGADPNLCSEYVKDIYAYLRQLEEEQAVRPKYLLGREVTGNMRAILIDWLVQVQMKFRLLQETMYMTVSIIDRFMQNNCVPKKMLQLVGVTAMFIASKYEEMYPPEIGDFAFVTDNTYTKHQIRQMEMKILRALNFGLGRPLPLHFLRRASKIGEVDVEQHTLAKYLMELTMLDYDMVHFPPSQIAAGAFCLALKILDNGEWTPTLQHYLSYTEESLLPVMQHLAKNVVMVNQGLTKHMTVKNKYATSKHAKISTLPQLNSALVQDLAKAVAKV
Sequence of CDK7/cyclin H (P50613 whole entry): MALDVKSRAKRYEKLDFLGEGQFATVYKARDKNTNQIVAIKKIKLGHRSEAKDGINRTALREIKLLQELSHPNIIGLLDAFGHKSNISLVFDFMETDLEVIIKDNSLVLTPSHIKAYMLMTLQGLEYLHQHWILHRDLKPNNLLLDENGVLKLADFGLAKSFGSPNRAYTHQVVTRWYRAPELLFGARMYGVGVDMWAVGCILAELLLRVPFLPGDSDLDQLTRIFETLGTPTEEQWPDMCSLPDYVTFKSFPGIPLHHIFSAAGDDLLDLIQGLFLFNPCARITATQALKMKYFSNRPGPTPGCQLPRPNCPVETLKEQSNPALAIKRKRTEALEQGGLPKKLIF
Sequence of CDK7/cyclin H (P51946 whole entry partner): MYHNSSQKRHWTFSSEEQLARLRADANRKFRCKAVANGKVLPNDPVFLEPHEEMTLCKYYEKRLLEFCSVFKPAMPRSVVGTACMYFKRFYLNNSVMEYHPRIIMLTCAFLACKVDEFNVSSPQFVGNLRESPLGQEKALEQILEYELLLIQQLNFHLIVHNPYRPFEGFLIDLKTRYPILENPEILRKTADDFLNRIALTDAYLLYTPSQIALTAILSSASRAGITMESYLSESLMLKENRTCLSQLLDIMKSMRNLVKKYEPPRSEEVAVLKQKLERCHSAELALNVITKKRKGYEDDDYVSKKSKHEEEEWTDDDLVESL
Sequence of Akt/PKB (P31749 whole entry): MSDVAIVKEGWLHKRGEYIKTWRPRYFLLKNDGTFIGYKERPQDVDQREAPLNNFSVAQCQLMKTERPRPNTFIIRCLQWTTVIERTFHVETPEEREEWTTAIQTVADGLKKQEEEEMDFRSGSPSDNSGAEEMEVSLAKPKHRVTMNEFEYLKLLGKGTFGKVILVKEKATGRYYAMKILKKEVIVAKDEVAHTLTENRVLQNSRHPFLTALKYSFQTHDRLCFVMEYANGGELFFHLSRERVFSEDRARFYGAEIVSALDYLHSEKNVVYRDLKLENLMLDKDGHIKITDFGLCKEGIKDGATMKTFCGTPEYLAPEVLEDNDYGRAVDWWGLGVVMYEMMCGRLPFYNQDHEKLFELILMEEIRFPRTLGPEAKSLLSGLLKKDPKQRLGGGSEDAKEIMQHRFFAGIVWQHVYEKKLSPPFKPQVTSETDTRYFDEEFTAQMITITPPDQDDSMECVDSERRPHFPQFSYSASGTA
Sequence of CDK4/Cyclin D1 (P11802 whole entry, species assumed): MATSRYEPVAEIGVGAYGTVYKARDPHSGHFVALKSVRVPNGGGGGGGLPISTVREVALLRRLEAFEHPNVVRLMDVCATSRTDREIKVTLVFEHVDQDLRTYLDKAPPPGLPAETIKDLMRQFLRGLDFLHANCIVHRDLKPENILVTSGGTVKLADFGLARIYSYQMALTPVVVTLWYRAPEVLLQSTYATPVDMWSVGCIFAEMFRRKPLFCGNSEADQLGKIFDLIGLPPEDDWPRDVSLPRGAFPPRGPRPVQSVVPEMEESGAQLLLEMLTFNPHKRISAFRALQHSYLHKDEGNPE
Sequence of CDK4/Cyclin D1 (P24385 whole entry partner, species assumed): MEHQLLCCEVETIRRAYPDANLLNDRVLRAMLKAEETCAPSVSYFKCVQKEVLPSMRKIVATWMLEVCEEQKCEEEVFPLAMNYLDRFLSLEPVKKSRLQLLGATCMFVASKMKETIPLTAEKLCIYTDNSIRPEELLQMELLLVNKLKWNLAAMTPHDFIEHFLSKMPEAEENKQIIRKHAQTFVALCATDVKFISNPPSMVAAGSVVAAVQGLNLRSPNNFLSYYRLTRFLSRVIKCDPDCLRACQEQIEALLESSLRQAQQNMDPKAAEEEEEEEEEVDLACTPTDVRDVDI
Sequence of CDK9/cyclin T1 (P50750 whole entry): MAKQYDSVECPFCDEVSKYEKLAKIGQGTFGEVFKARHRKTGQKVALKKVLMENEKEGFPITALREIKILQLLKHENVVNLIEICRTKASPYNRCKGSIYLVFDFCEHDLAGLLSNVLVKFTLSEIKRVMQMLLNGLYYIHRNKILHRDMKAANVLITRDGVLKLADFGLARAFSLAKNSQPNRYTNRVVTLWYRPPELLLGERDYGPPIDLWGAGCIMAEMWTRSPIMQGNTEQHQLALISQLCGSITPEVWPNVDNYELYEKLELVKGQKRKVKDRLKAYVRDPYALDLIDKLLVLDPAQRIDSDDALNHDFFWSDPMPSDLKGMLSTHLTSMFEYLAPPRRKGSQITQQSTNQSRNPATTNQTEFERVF
Sequence of CDK9/cyclin T1 (O60563 whole entry partner): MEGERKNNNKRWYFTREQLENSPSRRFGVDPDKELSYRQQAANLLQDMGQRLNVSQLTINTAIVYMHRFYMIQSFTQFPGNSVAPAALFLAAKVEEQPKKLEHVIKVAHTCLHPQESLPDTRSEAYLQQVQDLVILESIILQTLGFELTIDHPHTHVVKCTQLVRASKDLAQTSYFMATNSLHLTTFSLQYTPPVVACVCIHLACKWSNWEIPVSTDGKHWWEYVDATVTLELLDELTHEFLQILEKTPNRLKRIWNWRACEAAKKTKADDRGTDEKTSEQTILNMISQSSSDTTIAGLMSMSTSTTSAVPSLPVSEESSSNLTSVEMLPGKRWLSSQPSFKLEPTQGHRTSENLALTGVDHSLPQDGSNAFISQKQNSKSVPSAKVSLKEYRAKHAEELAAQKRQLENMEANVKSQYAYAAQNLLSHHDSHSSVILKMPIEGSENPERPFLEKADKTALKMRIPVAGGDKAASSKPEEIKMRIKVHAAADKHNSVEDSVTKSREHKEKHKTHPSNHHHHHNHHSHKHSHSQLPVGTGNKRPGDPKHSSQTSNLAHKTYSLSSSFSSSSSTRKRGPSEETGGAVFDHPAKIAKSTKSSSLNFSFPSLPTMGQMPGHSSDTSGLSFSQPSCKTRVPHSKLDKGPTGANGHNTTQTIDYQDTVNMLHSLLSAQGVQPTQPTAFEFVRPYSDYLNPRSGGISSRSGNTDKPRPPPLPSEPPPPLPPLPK

In the case of `Cc1nc(C)c(-c2ccnc(Nc3cccc([N+](=O)[O-])c3)n2)s1` [Compound 5, [4-(2,4-Dimethyl-thiazol-5-yl)-pyrimidin-2-yl]-(3-nitro-phenyl)-amine], the IC50 in series [1] (Table 2) is 13 µM; in series [2], > 50 µM; in [3] it was > 50 µM; in series [4], 40 µM; in series [5], 35 µM; in series [6] it was 40 µM. The IC50 in series [7] turned out to be 17 µM.
With `Cc1nc(C)c(-c2ccnc(Nc3ccc(F)cc3F)n2)s1` [Compound 9, (2,4-Difluoro-phenyl)-[4-(2,4-dimethyl-thiazol-5-yl)-pyrimidin-2-yl]-amine], the IC50 in [8] (Table 2) is 6.3 µM; in [9] (Table 2), > 50 µM; in [9] (Table 3), > 50 µM; in [2], > 50 µM; in series [3] it was > 50 µM; in series [4] it was 55 µM. Besides, the IC50 in series [5] came out at 40 µM; in series [6], 40 µM; in series [7] it was 38 µM.
`Cc1nc(C)c(-c2ccnc(Nc3ccc(C(F)(F)F)cc3)n2)s1` [Compound 15, [4-(2,4-Dimethyl-thiazol-5-yl)-pyrimidin-2-yl]-(4-trifluoromethyl-phenyl)-amine]: the IC50 in series [1] (Table 2) was > 100 µM; in series [1] (Table 3) it was > 100 µM; in [2], > 50 µM; in series [3], > 50 µM; in series [4], > 50 µM; in series [5], > 50 µM. In addition, the IC50 in series [6] is > 50 µM; in series [7] it was 34 µM.
`Cc1nc(C)c(-c2ccnc(Nc3ccc(I)cc3)n2)s1` [Compound 21, [4-(2,4-Dimethyl-thiazol-5-yl)-pyrimidin-2-yl]-(4-iodo-phenyl)-amine]: the melting point (usually the temperature, or range, at which the solid turns liquid) was 171 to 173 °C. In addition, in [10] (HIV-1RoJo/PBMC), the “TI (therapeutic index: TC50/IC50)” value was determined as 495. Also, in series [10] (setting [16]), the IC50 was found to be 0.062 µM. Also, the IC90 in series [10] (setting [17]) was determined as 0.1 µM. The “TI (therapeutic index: TC50/IC50)” value in series [11] (HIV-1WeJo/PBMC) was determined as 2190. In addition, in series [11] (setting [18]), the IC50 was 0.029 µM. Moreover, the IC90 in series [11] (setting [19]) amounted to 0.048 µM. Besides, the “anti-viral effectiveness as demonstrated by cell-based assays” value (from here on “anti-viral effectiveness as demonstrated”) in [12] is “particularly effective anti-viral agents”. Moreover, it took 31 µM to reach half-maximal cytotoxicity in series [13] (HIV-1RoJo/PBMC) (CC50 at 7 days). Moreover, in series [13] (HIV-1WeJo/PBMC), the CC50 (as a rule, the concentration giving 50% cytotoxicity) at 7 days was found to be 64 µM.
For the compound `Cc1nc(C)c(-c2ccnc(Nc3cccc(C#N)c3)n2)s1` [Compound 36, 3-[4-(2,4-Dimethyl-thiazol-5-yl)-pyrimidin-2-ylamino]-benzonitrile], the IC50 in series [8] (Table 2) turned out to be 0.39 µM; in [8] (Table 3), 0.39 µM; in series [14], 0.16 µM; in series [9] (Table 2) it was 2.9 µM; in series [1] (Table 2) it was 1.7 µM; in [15] (Table 2), 1 µM. Further, the IC50 is > 50 µM in [2]; > 50 µM in series [3]; > 50 µM in series [4]; > 50 µM in series [5]; > 50 µM in series [6]; 2.5 µM in series [7].
Take `Cc1nc(N)sc1-c1ccnc(Nc2cccc([N+](=O)[O-])c2)n1` [Compound 105, [4-(2-Amino-4-methyl-thiazol-5-yl)-pyrimidin-2-yl]-(3-nitro-phenyl)-amine]: the IC50 is > 100 µM in [3], 0.067 µM in [10] (setting [20]) and 0.005 µM in series [11] (setting [20]). The IC90 in series [10] (setting [21]) is 0.35 µM; in series [11] (setting [21]) it was 0.014 µM. For the same compound, the “anti-viral effectiveness as demonstrated” value in series [12] is on record as “particularly effective anti-viral agents”. Further, the results for the CC50 at 7 days in series [13] (HIV-1RoJo/PBMC) and in [13] (HIV-1WeJo/PBMC) were 1.6 µM and 0.2 µM, respectively.
Turning to `Cc1nc(N)sc1-c1ccnc(Nc2cccc(O)c2)n1` [Compound 116, 3-[4-(2-Amino-4-methyl-thiazol-5-yl)-pyrimidin-2-ylamino]-phenol], the IC50 was determined as 0.11 µM in series [8] (Table 2); 0.18 µM in series [14]; 0.46 µM in [9] (Table 2); 0.99 µM in [1] (Table 2); 0.13 µM in [15] (Table 2); 53 µM in [2]. Besides, the IC50 in [3] is 7.7 µM; in series [4], 15 µM; in series [5], 33 µM; in series [6] it was 29 µM; in [7], 0.58 µM.
For the compound `Cc1nc(N)sc1-c1ccnc(Nc2ccc(I)c([N+](=O)[O-])c2)n1` [Compound 117, [4-(2-Amino-4-methyl-thiazol-5-yl)-pyrimidin-2-yl]-(4-iodo-3-nitro-phenyl)-amine], the IC50 in series [8] (Table 2) stood at 0.28 µM; in [14], 1.7 µM; in series [9] (Table 2) it was 1.4 µM; in [1] (Table 2), 0.36 µM; in series [15] (Table 2), 0.055 µM; in series [2], 70 µM. In addition, the IC50 in series [3] is > 100 µM; in series [4] it was > 100 µM; in [5], > 100 µM; in [6], > 100 µM; in [7] it was 1.7 µM.
For `Cc1nc(C)c(-c2ccnc(Nc3ccc(N(C)C)c(Cl)c3)n2)s1` [Compound 128, 2-Chloro-N^4-[4-(2,4-dimethyl-thiazol-5-yl)-pyrimidin-2-yl]-N^1,N^1-dimethyl-benzene-1,4-diamine], the IC50 in series [1] (Table 3) worked out at 6.3 µM; in series [15] (Table 3), 0.45 µM; in series [10] (setting [16]) it was 0.74 µM; in series [11] (setting [18]) it was 0.86 µM. The figures for the IC90 in series [10] (setting [17]) and in series [11] (setting [19]) were 2.7 µM and 2 µM, respectively. In addition, the “anti-viral effectiveness as demonstrated” value in [12] is on record as “particularly effective anti-viral agents”. For the same compound, the cytotoxic concentration (CC50) at 7 days in series [13] (HIV-1RoJo/PBMC) is 4.3 µM; in [13] (HIV-1WeJo/PBMC), > 100 µM.
